Consider two compounds from patent publication US9913816B2, “Method for applying metformin and sodium butyrate in K-ras mutation cancer treatment” (Johnpro Biotech Inc., priority 2013, dated 2018).

This assay deals with HCT116 cells. The following applies: 72 hours; final concentration 0.75 mM sodium butyrate, 2 mM metformin, alone or both in combination; FIG. 1. As to the method:
The human colon cancer cell HCT116 (cell line with K-ras mutation) is cultured in the McCoy's 5A with 10% fetal bovine serum. When the HCT116 cells are cultured to the appropriate number, then the adherent HCT116 cells are suspended, and 2.5×10^5 HCT116 cells per well are seeded in a 6-wells dish. After incubated for 12 hours, sodium butyrate with a final concentration of 0.75 mM, metformin with a final concentration of 2 mM, and the pharmaceutical composition with final concentration of […] are respectively added to the 6-wells dish as above mentioned.
In this embodiment, the final concentration as mentioned means the concentration of respective substances after added in the medium for cell culture, and therefore the medium respectively contains 0.75 mM sodium butyrate, 2 mM metformin, or 0.75 mM sodium butyrate and 2 mM metformin.
After respectably added the above compounds to HCT116 cells, the 6-well dish is incubated in an incubator of 37° C. for 72 hours. After that, the medium and compounds in each well are sequentially removed, and each well is washed by Phosphate Buffered Saline (PBS), then the HCT116 cells are harvested, by treating trypsin-EDTA, for apoptosis analysis.
The apoptosis analysis is based on the Annexin V apoptosis detection kit (BD Pharmingen) for analysis the exposure of phosphatidylserine, and the protocol follows the accompanying manual. In brief, the treated HCT116 cells are washed three times with PBS, and then immediately stained with Annexin V/Propidium Iodide (PI). 1% fetal bovine serum albumin (BSA) is first added to the treated cells. After subsequently added 222.5 μl of binding buffer, 10 μl of PI and 2.5 μl of Annexin V-FITC are directly then added to stain the cells, followed by immediate incubation for 10 minutes at low temperature in the dark. The percentage of the apoptosis is calculated by the flow cytometry and FACSCalibur, the analysis software thereof.

In the case of `CN(C)C(=N)N=C(N)N` [metformin], the “apoptotic rate of HCT116 cells” value is given as “about 20%” and the “improvement of apoptotic rate compared to the control group” value was “about 15%”.

Take `CCCC(=O)[O-].[Na+]` [sodium butyrate]: the “apoptotic rate of HCT116 cells” value is “about 20%” and the “improvement of apoptotic rate compared to the control group” value is on record as “about 15%”.
